Patent EP0160546A2, “Cephalosporin compounds, and their production, and medicaments containing them” (YAMANOUCHI PHARMACEUTICAL CO. LTD., priority 1984, dated 1985)
Values after ≈ are worked out from the molar mass of the structure shown. Read-outs that look alike come from different tables or passages of the source.

How the values were obtained:
E. coli NIHJ = test: Antibacterial activity (minimum effective inhibitory concentration); assay type: cell-based; settings: Escherichia coli, read-out: minimum effective inhibitory concentrations
Source text: (§1) Antibacterial activities (minimum effective inhbitory concentrations) of compounds of formula I (taken from the following Examples) are shown in the following Table.

[1] = test system: Staph. epidermidis IID 866; test: as above; assay type: cell-based; settings: Staphylococcus epidermidis, IID866, read-out: minimum effective inhibitory concentrations
Source text: as §1

[2] = test system: Kleb. pneumoniae ATCC 10031; test: as above; assay type: cell-based; settings: Klebsiella pneumoniae, ATCC10031, read-out: minimum effective inhibitory concentrations
Source text: as §1

[3] = test system: Ps. aeruginosa NCTC 10490; test: as above; assay type: cell-based; settings: Pseudomonas aeruginosa, NCTC10490, read-out: minimum effective inhibitory concentrations
Source text: as §1

Serr. marcescense NY-10 = test: as above; assay type: cell-based; settings: read-out: minimum effective inhibitory concentrations
Source text: as §1

Solubility in water = assay type: physicochemical

SMILES	MIC (E. coli NIHJ; E. coli NIHJ) [mg/L]	MIC [1] [mg/L]	MIC [2] [mg/L]	MIC [3] [mg/L]	MIC (Serr. marcescense NY-10; Serr. marcescense NY-10) [mg/L]	solubility (Solubility in water) [mg/mL]	MIC (E. coli NIHJ) [mg/L]	MIC (Serr. marcescense NY-10) [mg/L]
CC(C)(ON=C(C(=O)NC1C(=O)N2C(C(=O)[O-])=C(C[n+]3cc(N)cc(N)c3)CSC12)c1csc(N)n1)C(=O)O (stereo not drawn) [Example 2, (Z)-7-[λ-(2-amino-4 thiazolyl)-λ-(1-carboxy-1-methylethoxyimino)acetamido]--3-(3,5-diamino-1-pyridiniomethyl)-Δ^3-cephem-4-carboxylate]	< 0.2	1.56 (≈ 2.71 µM)	< 0.2	0.39 (≈ 0.676 µM)	< 0.2			
CON=C(C(=O)NC1C(=O)N2C(C(=O)[O-])=C(C[n+]3ccc4c(c3)NC(=O)CO4)CSC12)c1csc(N)n1 (stereo not drawn) [Example 11, (Z)-7-[α-(2-amino-4-thiazolyl)-α-methoxyimino-acetamido]-3-[[6-(3-oxo-3,4-dihydro-2H-pyrido[4,3-b]-1,4-oxazinio)]methyl -Δ^3-cephem-4-carboxylate]	< 0.2	0.78 (≈ 1.43 µM)	< 0.2	1.56 (≈ 2.86 µM)	< 0.2			
CON=C(C(=O)NC1C(=O)N2C(C(=O)[O-])=C(C[n+]3ccc4c(c3)N(O)C(=O)CO4)CSC12)c1csc(N)n1 (stereo not drawn) [Example 12, (Z)-7-[α-(2-amino-4-thiazolyl)-α-methoxyiminoacetamido]-3-[[6-(4-hydroxy-3-oxo-3,4-dihydro-2H-pyrido[4,3-b]-1,4-oxazinio)]methyl]-Δ^3-cephem-4-carboxylate]	< 0.2	1.56 (≈ 2.78 µM)	< 0.2	1.56 (≈ 2.78 µM)	< 0.2			
CC(C)(O/N=C(\C(=O)N[C@@H]1C(=O)N2C(C(=O)[O-])=C(C[n+]3ccccc3)CS[C@H]12)c1csc(N)n1)C(=O)O [cefta-zidime, reference compound]		3.13 (≈ 5.73 µM)	< 0.2	0.78 (≈ 1.43 µM)			< 0.2	< 0.2
CON=C(C(=O)NC1C(=O)N2C(C(=O)[O-])=C(C[n+]3ccc4c(c3)N(OC)C(=O)CO4)CSC12)c1csc(N)n1 (stereo not drawn) [Example 10]	< 0.2	6.25 (≈ 10.9 µM)	< 0.2	0.39 (≈ 0.678 µM)	0.2 (≈ 0.347 µM)			

More lines, main results first:

MIC (E. coli NIHJ; E. coli NIHJ) [mg/L]	MIC [1] [mg/L]	MIC [2] [mg/L]	MIC [3] [mg/L]	MIC (Serr. marcescense NY-10; Serr. marcescense NY-10) [mg/L]	solubility (Solubility in water) [mg/mL]	SMILES	MIC (E. coli NIHJ) [mg/L]	MIC (Serr. marcescense NY-10) [mg/L]
< 0.2	0.39 (≈ 0.734 µM)	< 0.2	0.78 (≈ 1.47 µM)	< 0.2		CON=C(C(=O)NC1C(=O)N2C(C(=O)[O-])=C(C[n+]3ccc4c(c3)NCCO4)CSC12)c1csc(N)n1 (stereo not drawn) [Example 13, (Z)-7-[α-(2-amino-4-thiazolyl) -α-methoxyiminoacetamido]-3-[[6-(3,4-dihydro-2H-pyrido[4,3-b1-1,4-oxazinio)]methyl]-Δ^3-cephem-4-carboxylate]		
< 0.2	0.2 (≈ 0.385 µM)	< 0.2	1.56 (≈ 3 µM)	< 0.2	> 230	CO/N=C(\C(=O)N[C@@H]1C(=O)N2C(C(=O)[O-])=C(C[n+]3ccc(OC)c(N)c3)CS[C@H]12)c1csc(N)n1 [Example 5, (Z)-7-[α-(2-amino-4-thiazolyl)-α-methoxyiminoacetamido,]-3-(3-amino-4-methoxypyridiniomethyl)-Δ^3-cephem-4-carboxylate]		
< 0.2	0.2 (≈ 0.397 µM)	< 0.2	1.56 (≈ 3.1 µM)	< 0.2		CO/N=C(\C(=O)N[C@@H]1C(=O)N2C(C(=O)[O-])=C(C[n+]3ccc(C)c(N)c3)CS[C@H]12)c1csc(N)n1 [Example 9, (Z)-1-[α-(2-amino-4-thiazolyl)-α-methoxyiminoacet--amido]-3-(3-amino-4-methylpyridiniomethyl)-Δ^3-cephem-4-carboxylic acid]		
< 0.2	0.2 (≈ 0.396 µM)	< 0.2	1.56 (≈ 3.09 µM)	< 0.2		CON=C(C(=O)NC1C(=O)N2C(C(=O)[O-])=C(C[n+]3ccc(N)c(N)c3)CSC12)c1csc(N)n1 (stereo not drawn) [Example 3, (Z)-7-[λ-(2-amino-4-thiazolyl)-λ-(methoxyimino)acetamido]-3-(3,4-diamino-1-pyridiniomethyl)-Δ^3-cephem-4-carboxylate]		
< 0.2	0.78 (≈ 1.35 µM)	< 0.2	1.56 (≈ 2.69 µM)	< 0.2		CO/N=C(\C(=O)N[C@@H]1C(=O)N2C(C(=O)[O-])=C(C[n+]3ccc(OCC(O)CO)c(N)c3)CS[C@H]12)c1csc(N)n1 (stereo partly drawn) [Example 6, (Z ) -7-[α-(2-amino-4-thiazolyl)-α-methoxyiminoacetamido]-3-[3-amino-4-(2,3-dihydroxypropyloxy)pyridiniomethyl]-Δ^3-cephem-4-carboxylate]		
